ChEMBL document CHEMBL1130110 (J Med Chem, 1997)
pIC50: −log10 of the molar value.

What was measured:
[1] = biological target: T1, Glucagon receptor (Rattus norvegicus, UniProt P30082); test: Effective concentration was determined in cAMP accumulation assay using isolated hepatocytes in the presence rolipram.; assay type: functional, cell-based; conditions: hepatocyte
[2] = biological target: T1, Glucagon receptor; test: Binding affinity towards Glucagon receptor in rat liver plasma membranes by displacement of 125 I-labelled glucagon; assay type: cell membranes
[3] = biological target: T1, Glucagon receptor; test: pA2 value against Glucagon Receptor; conditions: read-out: pA2 (converted)

T1 sequence (P30082 whole entry): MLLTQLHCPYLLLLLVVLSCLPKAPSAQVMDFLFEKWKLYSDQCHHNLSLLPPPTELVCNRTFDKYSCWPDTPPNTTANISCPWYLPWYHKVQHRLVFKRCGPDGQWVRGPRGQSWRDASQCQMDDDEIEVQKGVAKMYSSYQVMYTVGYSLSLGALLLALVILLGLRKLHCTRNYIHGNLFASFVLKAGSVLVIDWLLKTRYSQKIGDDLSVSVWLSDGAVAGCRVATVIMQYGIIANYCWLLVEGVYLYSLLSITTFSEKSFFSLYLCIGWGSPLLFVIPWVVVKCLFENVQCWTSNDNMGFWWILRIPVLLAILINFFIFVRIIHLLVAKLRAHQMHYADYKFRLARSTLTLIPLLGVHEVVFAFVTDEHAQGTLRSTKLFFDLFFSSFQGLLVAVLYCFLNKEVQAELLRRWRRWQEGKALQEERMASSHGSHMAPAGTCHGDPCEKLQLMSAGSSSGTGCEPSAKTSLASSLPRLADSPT

EC50 [1] | pIC50 [2] | Kb [3] [nM] | Compound
Not Active | – | – | CC(C)C[C@H](NC(=O)[C@H](Cc1ccc(O)cc1)NC(=O)[C@H](CCCCN)NC(=O)[C@H](CO)NC(=O)[C@H](Cc1ccc(O)cc1)NC(=O)[C@H](CC(=O)O)NC(=O)[C@H](CO)NC(=O)[C@@H](NC(=O)[C@@H](NC(=O)CNC(=O)[C@H](CCC(N)=O)NC(=O)[C@H](CO)NC(=O)[C@@H](N)Cc1c[nH]cn1)[C@@H](C)O)[C@@H](C)O)C(=O)N[C@@H](CC(=O)O)C(=O)N[C@@H](CO)C(=O)N[C@@H](CCCN=C(N)N)C(=O)N[C@@H](CCCN=C(N)N)C(=O)N[C@@H](C)C(=O)N[C@@H](CCC(N)=O)C(=O)N[C@@H](CC(=O)O)C(=O)N[C@@H](Cc1ccccc1)C(=O)N[C@H](C(=O)N[C@@H](CCC(N)=O)C(=O)N[C@@H](Cc1c[nH]c2ccccc12)C(=O)N[C@@H](CC(C)C)C(=O)N[C@@H](CCS)C(=O)N[C@@H](CC(N)=O)C(=O)N[C@H](C=O)[C@@H](C)O)C(C)C
– | 6.00 | 794 | CSCC[C@H](NC(=O)[C@H](CC(C)C)NC(=O)[C@H](Cc1c[nH]c2ccccc12)NC(=O)[C@H](CCC(N)=O)NC(=O)[C@@H](NC(=O)[C@H](Cc1ccccc1)NC(=O)[C@H](CC(=O)O)NC(=O)[C@H](CCC(N)=O)NC(=O)[C@H](C)NC(=O)[C@H](CCCNC(=N)N)NC(=O)[C@H](CCCNC(=N)N)NC(=O)[C@H](CO)NC(=O)[C@H](CC(=O)O)NC(=O)[C@H](CC(C)C)NC(=O)[C@H](Cc1ccc(O)cc1)NC(=O)[C@H](CCCCN)NC(=O)[C@H](CO)NC(=O)[C@H](Cc1ccc(O)cc1)NC(=O)[C@H](CCC(=O)O)NC(=O)[C@H](CO)NC(=O)[C@@H](NC(=O)[C@@H](NC(=O)CNC(=O)[C@H](CCC(N)=O)NC(=O)[C@@H](N)CO)[C@@H](C)O)[C@@H](C)O)C(C)C)C(=O)N[C@@H](CC(N)=O)C(=O)N[C@H](C(=O)O)[C@@H](C)O (stereo in doubt; 12)
– | 7.00 | 501 | CSCC[C@H](NC(=O)[C@H](CC(C)C)NC(=O)[C@H](Cc1c[nH]c2ccccc12)NC(=O)[C@H](CCC(N)=O)NC(=O)[C@@H](NC(=O)[C@H](Cc1ccccc1)NC(=O)[C@H](CC(=O)O)NC(=O)[C@H](CCC(N)=O)NC(=O)[C@H](C)NC(=O)[C@H](CCCN=C(N)N)NC(=O)[C@H](CCCN=C(N)N)NC(=O)[C@H](CO)NC(=O)[C@H](CC(=O)O)NC(=O)[C@H](CC(C)C)NC(=O)[C@H](Cc1ccc(O)cc1)NC(=O)[C@H](CCCCN)NC(=O)[C@H](CO)NC(=O)[C@H](Cc1ccc(O)cc1)NC(=O)[C@H](CCC(=O)O)NC(=O)[C@H](CO)NC(=O)[C@@H](NC(=O)[C@@H](Cc1ccccc1)NC(=O)[C@@H](NC(=O)CNC(=O)[C@H](CCC(N)=O)NC(=O)[C@@H](N)CO)[C@@H](C)O)[C@@H](C)O)C(C)C)C(=O)N[C@@H](CC(N)=O)C(=O)N[C@H](C(N)=O)[C@@H](C)O
– | 7.32 | – | CCCC[C@H](NC(=O)[C@@H](NC(=O)CNC(=O)[C@H](CCC(N)=O)NC(=O)[C@@H](N)CO)[C@@H](C)O)C(=O)N[C@H](C(=O)N[C@@H](CO)C(=O)N[C@@H](CCC(=O)O)C(=O)N[C@@H](Cc1ccc(O)cc1)C(=O)N[C@@H](CO)C(=O)N[C@@H](CCCCN)C(=O)N[C@@H](Cc1ccc(O)cc1)C(=O)N[C@@H](CC(C)C)C(=O)N[C@@H](CC(=O)O)C(=O)N[C@@H](CO)C(=O)N[C@@H](CCCN=C(N)N)C(=O)N[C@@H](CCCN=C(N)N)C(=O)N[C@@H](C)C(=O)N[C@@H](CCC(N)=O)C(=O)N[C@@H](CC(=O)O)C(=O)N[C@@H](Cc1ccccc1)C(=O)N[C@H](C(=O)N[C@@H](CCC(N)=O)C(=O)N[C@@H](Cc1c[nH]c2ccccc12)C(=O)N[C@@H](CC(C)C)C(=O)N[C@@H](CCSC)C(=O)N[C@@H](CC(N)=O)C(=O)N[C@H](C(N)=O)[C@@H](C)O)C(C)C)[C@@H](C)O
– | 5.70 | 631 | CSCC[C@H](NC(=O)[C@H](CC(C)C)NC(=O)[C@H](Cc1c[nH]c2ccccc12)NC(=O)[C@H](CCC(N)=O)NC(=O)[C@@H](NC(=O)[C@H](Cc1ccccc1)NC(=O)[C@H](CC(=O)O)NC(=O)[C@H](CCC(N)=O)NC(=O)[C@H](C)NC(=O)[C@H](CCCNC(=N)N)NC(=O)[C@H](CCCNC(=N)N)NC(=O)[C@H](CO)NC(=O)[C@H](CC(=O)O)NC(=O)[C@H](CC(C)C)NC(=O)[C@H](Cc1ccc(O)cc1)NC(=O)[C@H](CCCCN)NC(=O)[C@H](CO)NC(=O)[C@H](Cc1ccc(O)cc1)NC(=O)[C@H](CCC(=O)O)NC(=O)[C@H](CO)NC(=O)[C@@H](NC(=O)[C@@H](NC(=O)CNC(=O)[C@H](CCC(N)=O)NC(=O)[C@@H](N)CO)[C@@H](C)O)[C@@H](C)O)C(C)C)C(=O)N[C@@H](CC(N)=O)C(=O)N[C@H](C(=O)O)[C@@H](C)O (stereo in doubt; 13)
– | 6.70 | 708 | CSCC[C@H](NC(=O)[C@H](CC(C)C)NC(=O)[C@H](Cc1c[nH]c2ccccc12)NC(=O)[C@H](CCC(N)=O)NC(=O)[C@@H](NC(=O)[C@H](Cc1ccccc1)NC(=O)[C@H](CC(=O)O)NC(=O)[C@H](CCC(N)=O)NC(=O)[C@H](C)NC(=O)[C@H](CCCNC(=N)N)NC(=O)[C@H](CCCNC(=N)N)NC(=O)[C@H](CO)NC(=O)[C@H](CC(=O)O)NC(=O)[C@H](CC(C)C)NC(=O)[C@H](Cc1ccc(O)cc1)NC(=O)[C@H](CCCCN)NC(=O)[C@H](CO)NC(=O)[C@H](Cc1ccc(O)cc1)NC(=O)[C@H](CC(=O)O)NC(=O)[C@H](CO)NC(=O)[C@@H](NC(=O)[C@@H](NC(=O)CNC(=O)[C@H](CCC(N)=O)NC(=O)[C@@H](N)CO)[C@@H](C)O)[C@@H](C)O)C(C)C)C(=O)N[C@@H](CC(N)=O)C(=O)N[C@H](C(=O)O)[C@@H](C)O
– | 6.30 | 562 | H-HSQGTTSDYSKYLDSRRAQDFVQWLMNT-OH
– | 7.28 | 891 | CSCC[C@H](NC(=O)[C@H](CC(C)C)NC(=O)[C@H](Cc1c[nH]c2ccccc12)NC(=O)[C@H](CCC(N)=O)NC(=O)[C@@H](NC(=O)[C@H](Cc1ccccc1)NC(=O)[C@H](CC(=O)O)NC(=O)[C@H](CCC(N)=O)NC(=O)[C@H](C)NC(=O)[C@H](CCCN=C(N)N)NC(=O)[C@H](CCCN=C(N)N)NC(=O)[C@H](CO)NC(=O)[C@H](CC(=O)O)NC(=O)[C@H](CC(C)C)NC(=O)[C@H](Cc1ccc(O)cc1)NC(=O)[C@H](CCCCN)NC(=O)[C@H](CO)NC(=O)[C@H](Cc1ccc(O)cc1)NC(=O)[C@H](CCC(=O)O)NC(=O)[C@H](CO)NC(=O)[C@@H](NC(=O)[C@H](Cc1ccccc1)NC(=O)[C@@H](NC(=O)[C@H](CCC(N)=O)NC(=O)[C@@H](N)CO)[C@@H](C)O)[C@@H](C)O)C(C)C)C(=O)N[C@@H](CC(N)=O)C(=O)N[C@H](C(N)=O)[C@@H](C)O
– | 5.70 | 501 | CSCC[C@H](NC(=O)[C@H](CC(C)C)NC(=O)[C@H](Cc1c[nH]c2ccccc12)NC(=O)[C@H](CCC(N)=O)NC(=O)[C@@H](NC(=O)[C@H](Cc1ccccc1)NC(=O)[C@H](CC(=O)O)NC(=O)[C@H](CCC(N)=O)NC(=O)[C@H](C)NC(=O)[C@H](CCCNC(=N)N)NC(=O)[C@H](CCCNC(=N)N)NC(=O)[C@H](CO)NC(=O)[C@H](CC(=O)O)NC(=O)[C@H](CC(C)C)NC(=O)[C@H](Cc1ccc(O)cc1)NC(=O)[C@H](CCCCN)NC(=O)[C@H](CO)NC(=O)[C@H](Cc1ccc(O)cc1)NC(=O)[C@H](CCC(=O)O)NC(=O)[C@H](CO)NC(=O)[C@@H](NC(=O)[C@H](CC(=O)O)NC(=O)[C@@H](NC(=O)CNC(=O)[C@H](CCC(N)=O)NC(=O)[C@@H](N)CO)[C@@H](C)O)[C@@H](C)O)C(C)C)C(=O)N[C@@H](CC(N)=O)C(=O)N[C@H](C(N)=O)[C@@H](C)O
